According to patent publication US7612065B2, “Inhibitors of c-JUN N-terminal kinases (JNK)” (priority 2007, dated 2009):

target: T1, JNK3 (Homo sapiens, UniProt P53779); experiment: JNK inhibition assay: spectrophotometric coupled-enzyme assay with activated JNK3; assay type: biochemical; conditions: activated JNK3 10 nM, 10 μM ATP, 200 μM EGF receptor peptide, 30° C., competitive inhibition model
T1 construct: One such construct encodes amino acid residues Ser40-Glu402 of JNK3α1 and is preceded by Met and Gly residues; Met-Gly (initiation methionine plus glycine added for the NcoI site); made in house; host or cells: E. coli BL21 (DE3)
T1 sequence (P53779 40-402): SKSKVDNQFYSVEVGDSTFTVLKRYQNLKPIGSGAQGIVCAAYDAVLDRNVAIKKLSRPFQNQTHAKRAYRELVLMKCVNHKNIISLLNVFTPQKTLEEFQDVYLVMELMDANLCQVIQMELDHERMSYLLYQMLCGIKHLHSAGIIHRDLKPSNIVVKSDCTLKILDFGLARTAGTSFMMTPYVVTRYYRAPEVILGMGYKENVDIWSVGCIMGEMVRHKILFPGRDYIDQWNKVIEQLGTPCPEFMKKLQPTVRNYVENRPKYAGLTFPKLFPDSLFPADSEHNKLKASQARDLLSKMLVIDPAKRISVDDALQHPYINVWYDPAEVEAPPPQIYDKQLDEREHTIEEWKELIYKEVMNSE
Description: A BLAST search of the EST database using the published JNK3α1 cDNA as a query identified an EST clone (#632588) that contained the entire coding sequence for human JNK3α1. Polymerase chain reactions (PCR) using pfu polymerase (Strategene) were used to introduce restriction sites into the cDNA for cloning into the pET-15B expression vector at the NcoI and BamHI sites. The protein was expressed in E. coli. […] This truncation corresponds to Ser 2 of JNK1 and JNK2 proteins, and is preceded by a methionine (initiation) and a glycine residue. The glycine residue was added in order to introduce an NcoI site for cloning into the expression vector. In addition, systematic C-terminal truncations were performed by PCR to identify a construct that give rise to diffraction-quality crystals.
5 mg of JNK3 was diluted to 0.5 mg/ml in 50 mM HEPES buffer, pH 7.5, containing 100 mM NaCl, 5 mM DTT, 20 mM MgCl2 and 1 mM ATP. GST-MKK7(DD) was added at a molar ratio of 1:2.5 GST-MKK7:JNK3. After incubation for 30 minutes at 25° C., the reaction mixture was concentrated 5-fold by ultrafiltration in a Centriprep-30 (Amicon, Beverly, Mass.), diluted to 10 ml and an additional 1 mM ATP added. This procedure was repeated three times to remove ADP and replenish ATP. The final addition of ATP was 5 mM and the mixture incubated overnight at 4° C.
The activated JNK3/GST-MKK7(DD) reaction mixture was exchanged into 50 mM HEPES buffer, pH 7.5, containing 5 mM DTT and 5% glycerol (w/v) by dialysis or ultrafiltration. The reaction mixture was adjusted to 1.1 M potassium phosphate, pH 7.5, and purified by hydrophobic interaction chromatography (at 25° C.) using a Rainin Hydropore column. […] Activated JNK3 (i.e. doubly phosphorylated JNK3) was stored at −70° C. at 0.25-1 mg/ml.
Compounds were assayed for the inhibition of JNK3 by a spectrophotometric coupled-enzyme assay. In this assay, a fixed concentration of activated JNK3 (10 nM) was incubated with various concentrations of a potential inhibitor dissolved in DMSO for 10 minutes at 30° C. in a buffer containing 0.1 M HEPES buffer, pH 7.5, containing 10 mM MgCl2, 2.5 mM phosphoenolpyruvate, 200 μM NADH, 150 μg/mL pyruvate kinase, 50 μg/mL lactate dehydrogenase, and 200 μM EGF receptor peptide. […] The reaction was initiated by the addition of 10 μM ATP and the assay plate is inserted into the spectrophotometer's assay plate compartment that was maintained at 30° C. The decrease of absorbance at 340 nm was monitored as a function of time. The rate data as a function of inhibitor concentration was fitted to competitive inhibition kinetic model to determine the Ki.

SMILES | Ki
N#Cc1cccc2c1/C(=N/O)C(=O)N2Cc1cc(F)cc2c1OCOC2 [Compound 212] | ≥ 1000 nM
COCC(=O)Nc1ccc2c(c1)N(Cc1cc(F)cc3c1OCOC3)C(=O)/C2=N\O [Compound 214] | < 1000 nM
Cc1cc2c(c(CN3C(=O)/C(=N\O)c4ccc(C(=O)O)cc43)c1)OCOC2 [Compound 216] | < 1000 nM
N#CCC(=O)Nc1ccc2c(c1)N(Cc1cc(F)cc3c1OCOC3)C(=O)/C2=N\O [Compound 217] | < 1000 nM
O=C(Nc1ccc2c(c1)N(Cc1cc(F)cc3c1OCOC3)C(=O)/C2=N\O)c1cc(=O)c2ccccc2o1 [Compound 218] | ≥ 1000 nM
O=C(Cc1ccccc1F)Nc1ccc2c(c1)N(Cc1cc(F)cc3c1OCOC3)C(=O)/C2=N\O [Compound 220] | < 1000 nM
O=C(Nc1ccc2c(c1)N(Cc1cc(F)cc3c1OCOC3)C(=O)/C2=N\O)c1csc(C2COc3ccccc3O2)n1 (stereo not drawn) [Compound 222] | ≥ 1000 nM
CCCC(=O)Nc1ccc2c(c1)N(Cc1cc(F)cc3c1OCOC3)C(=O)/C2=N\O [Compound 224] | < 1000 nM
O=C(Nc1ccc2c(c1)N(Cc1cc(F)cc3c1OCOC3)C(=O)/C2=N\O)C1CCCC1 [Compound 225] | < 1000 nM
O=C(Nc1ccc2c(c1)N(Cc1cc(F)cc3c1OCOC3)C(=O)/C2=N\O)c1ccco1 [Compound 226] | < 1000 nM
COc1ccc(CCNC(=O)c2ccc3c(c2)N(Cc2cc(F)cc4c2OCOC4)C(=O)/C3=N\O)cc1OC [Compound 232] | ≥ 1000 nM
O=C(NCc1cccc(Cl)c1)c1ccc2c(c1)N(Cc1cc(F)cc3c1OCOC3)C(=O)/C2=N\O [Compound 234] | ≥ 1000 nM
O=C(NCc1cc(Cl)ccc1Cl)c1ccc2c(c1)N(Cc1cc(F)cc3c1OCOC3)C(=O)/C2=N\O [Compound 236] | ≥ 1000 nM
O=C(NCc1cccnc1)c1ccc2c(c1)N(Cc1cc(F)cc3c1OCOC3)C(=O)/C2=N\O [Compound 237] | ≥ 1000 nM
O=C(NCc1ccncc1)c1ccc2c(c1)N(Cc1cc(F)cc3c1OCOC3)C(=O)/C2=N\O [Compound 238] | ≥ 1000 nM
O=C(NCCc1ccccn1)c1ccc2c(c1)N(Cc1cc(F)cc3c1OCOC3)C(=O)/C2=N\O [Compound 239] | ≥ 1000 nM

SMILES | Ki
CCN(Cc1ccccc1)C(=O)c1ccc2c(c1)N(Cc1cc(F)cc3c1OCOC3)C(=O)/C2=N\O [Compound 242] | ≥ 1000 nM
CCC(NC(=O)c1ccc2c(c1)N(Cc1cc(F)cc3c1OCOC3)C(=O)/C2=N\O)c1ccccc1 (stereo not drawn) [Compound 243] | ≥ 1000 nM
COC(=O)c1cccc2c1/C(=N/O)C(=O)N2Cc1cc(F)cc2c1OCOC2 [Compound 244] | ≥ 1000 nM
O=C(O)c1cccc2c1/C(=N/O)C(=O)N2Cc1cc(F)cc2c1OCOC2 [Compound 245] | ≥ 1000 nM
O=C(Nc1ccc2c(c1)N(Cc1cc(F)cc3c1OCOC3)C(=O)/C2=N\O)c1ccccc1 [Compound 247] | < 1000 nM
O=C(Nc1ccc2c(c1)N(Cc1cc(F)cc3c1OCOC3)C(=O)/C2=N\O)c1ccc(F)cc1 [Compound 248] | < 1000 nM
O=C(Nc1ccc2c(c1)N(Cc1cc(F)cc3c1OCOC3)C(=O)/C2=N\O)c1ccc(F)cc1F [Compound 249] | < 1000 nM
O=C(Nc1ccc2c(c1)N(Cc1cc(F)cc3c1OCOC3)C(=O)/C2=N\O)c1cccc(Cl)c1Cl [Compound 251] | < 1000 nM
O=C(Nc1ccc2c(c1)N(Cc1cc(F)cc3c1OCOC3)C(=O)/C2=N\O)c1ccc(Cl)c(Cl)c1 [Compound 253] | ≥ 1000 nM
O=C(Nc1ccc2c(c1)N(Cc1cc(F)cc3c1OCOC3)C(=O)/C2=N\O)c1cccnc1 [Compound 254] | < 1000 nM
O=C(Nc1ccc2c(c1)N(Cc1cc(F)cc3c1OCOC3)C(=O)/C2=N\O)c1cccc(Cl)c1 [Compound 255] | < 1000 nM
O=C(Nc1ccc2c(c1)N(Cc1cc(F)cc3c1OCOC3)C(=O)/C2=N\O)N1CCOCC1 [Compound 257] | ≥ 1000 nM
COC(=O)CC(=O)Nc1ccc2c(c1)N(Cc1cc(F)cc3c1OCOC3)C(=O)/C2=N\O [Compound 259] | < 1000 nM
O=C(Nc1ccc2c(c1)N(Cc1cc(F)cc3c1OCOC3)C(=O)/C2=N\O)c1ccc([N+](=O)[O-])cc1 [Compound 260] | < 1000 nM
CC(C)S(=O)(=O)Nc1ccc2c(c1)N(Cc1cc(F)cc3c1OCOC3)C(=O)/C2=N\O [Compound 264] | ≥ 1000 nM

Further lines, results first:

Ki | SMILES
≥ 1000 nM | O=C1/C(=N\O)c2ccc(NS(=O)(=O)c3ccc(Cl)cc3)cc2N1Cc1cc(F)cc2c1OCOC2 [Compound 213]
< 1000 nM | COC(=O)c1ccc2c(c1)N(Cc1cc(C)cc3c1OCOC3)C(=O)/C2=N\O [Compound 215]
< 1000 nM | O=C(Cc1cccs1)Nc1ccc2c(c1)N(Cc1cc(F)cc3c1OCOC3)C(=O)/C2=N\O [Compound 219]
< 1000 nM | O=C(Nc1ccc2c(c1)N(Cc1cc(F)cc3c1OCOC3)C(=O)/C2=N\O)c1cc2ccccc2o1 [Compound 221]
≥ 1000 nM | CN(C)CC(=O)Nc1ccc2c(c1)N(Cc1cc(F)cc3c1OCOC3)C(=O)/C2=N\O [Compound 223]
< 1000 nM | O=C(NCc1ccc(F)cc1)c1ccc2c(c1)N(Cc1cc(F)cc3c1OCOC3)C(=O)/C2=N\O [Compound 227]
≥ 1000 nM | O=C(c1ccc2c(c1)N(Cc1cc(F)cc3c1OCOC3)C(=O)/C2=N\O)N1CCOCC1 [Compound 228]
≥ 1000 nM | O=C(Nc1cccc(F)c1)c1ccc2c(c1)N(Cc1cc(F)cc3c1OCOC3)C(=O)/C2=N\O [Compound 229]
≥ 1000 nM | COc1cc(CNC(=O)c2ccc3c(c2)N(Cc2cc(F)cc4c2OCOC4)C(=O)/C3=N\O)cc(OC)c1 [Compound 230]
≥ 1000 nM | COc1ccccc1CNC(=O)c1ccc2c(c1)N(Cc1cc(F)cc3c1OCOC3)C(=O)/C2=N\O [Compound 231]
≥ 1000 nM | Cc1ccccc1CNC(=O)c1ccc2c(c1)N(Cc1cc(F)cc3c1OCOC3)C(=O)/C2=N\O [Compound 233]
≥ 1000 nM | O=C(NCCN1CCOCC1)c1ccc2c(c1)N(Cc1cc(F)cc3c1OCOC3)C(=O)/C2=N\O [Compound 240]
≥ 1000 nM | CC(C)(C)NC(=O)c1ccc2c(c1)N(Cc1cc(F)cc3c1OCOC3)C(=O)/C2=N\O [Compound 241]
≥ 1000 nM | O=C1/C(=N\O)c2c(C#Cc3ccccc3)cccc2N1Cc1cc(F)cc2c1OCOC2 [Compound 246]
< 1000 nM | COc1cccc(C(=O)Nc2ccc3c(c2)N(Cc2cc(F)cc4c2OCOC4)C(=O)/C3=N\O)c1 [Compound 250]
≥ 1000 nM | O=C(Nc1ccc2c(c1)N(Cc1cc(F)cc3c1OCOC3)C(=O)/C2=N\O)c1ccc(Cl)cc1Cl [Compound 252]
< 1000 nM | COc1ccccc1C(=O)Nc1ccc2c(c1)N(Cc1cc(F)cc3c1OCOC3)C(=O)/C2=N\O [Compound 256]
< 1000 nM | CCOC(=O)C(=O)Nc1ccc2c(c1)N(Cc1cc(F)cc3c1OCOC3)C(=O)/C2=N\O [Compound 258]
< 1000 nM | CC(C)C(=O)Nc1ccc2c(c1)N(Cc1cc(F)cc3c1OCOC3)C(=O)/C2=N\O [Compound 261]
< 1000 nM | CS(=O)(=O)Nc1ccc2c(c1)N(Cc1cc(F)cc3c1OCOC3)C(=O)/C2=N\O [Compound 262]
< 1000 nM | CCS(=O)(=O)Nc1ccc2c(c1)N(Cc1cc(F)cc3c1OCOC3)C(=O)/C2=N\O [Compound 263]
≥ 1000 nM | COc1ccc(S(=O)(=O)Nc2ccc3c(c2)N(Cc2cc(F)cc4c2OCOC4)C(=O)/C3=N\O)cc1 [Compound 265]
< 1000 nM | Cc1ccccc1C(=O)c1ccc2c(c1)/C(=N\O)C(=O)N2Cc1cc(F)cc2c1OCOC2 [Compound 268]
